Measured values: publication PMC7795089, “Antimalarials and Phytotoxins from Botryosphaeria dothidea Identified from a Seed of Diseased Torreya taxifolia” (Molecules, 2020)
Where two headings read alike, the source gives them in different places.

Experiments:
[1] = system: Bacillus subtilis; set-up: method as in PMID 30935798; conditions: enantiomers and racemate of compound 2; cited from earlier work
[2] = system: human leukemia HL-60 cells; set-up: method as in PMID 30935798; conditions: enantiomers and racemate of compound 2; comparable to positive control irinotecan; cited from earlier work
[3] = system: Plasmodium; set-up: method as in PMID 32043422; conditions: cited from earlier work
[4] = system: Plasmodium falciparum D6 (chloroquine-sensitive) strain; experiment: In vitro antiplasmodial assay, chloroquine-sensitive (D6) clone; assay type: cell-based; conditions: for IC50: Plasmodium falciparum
[5] = system: Plasmodium falciparum W2 (chloroquine-resistant) strain; experiment: microbe, parasite or virus in culture; assay type: cell-based; conditions: for IC50: Plasmodium falciparum
[6] = In vitro cytotoxicity assay (neutral red), Vero cells; assay type: cell-based; conditions: African green monkey, Vero cells (kidney fibroblasts)
Experimental: (§1) Cells were seeded to the wells of a 96-well plate at a density of 25,000 cells/well and incubated for 24 h. Samples at different concentrations were added and plates were again incubated for 48 h. The number of viable cells was determined by using neutral red dye and IC50 values were obtained from dose response curves. Doxorubicin was used as a positive control.

[7] = In vitro cytotoxicity assay (neutral red), SK-MEL; assay type: cell-based; conditions: human, SK-MEL cells (malignant melanoma), 48 h incubation, read-out: Cytotoxic activity IC50, SK-MEL
Experimental: as §1

[8] = In vitro cytotoxicity assay (neutral red), KB; assay type: cell-based; conditions: human, KB cells (oral epidermal carcinoma), 48 h incubation, read-out: Cytotoxic activity IC50, KB
Experimental: as §1

[9] = In vitro cytotoxicity assay (neutral red), BT-549; assay type: cell-based; conditions: human, BT-549 cells (breast ductal carcinoma), 48 h incubation, read-out: Cytotoxic activity IC50, BT-549
Experimental: as §1

[10] = In vitro cytotoxicity assay (neutral red), SK-OV-3; assay type: cell-based; conditions: human, SK-OV-3 cells (ovarian carcinoma), 48 h incubation, read-out: Cytotoxic activity IC50, SK-OV-3
Experimental: as §1

[11] = In vitro cytotoxicity assay (neutral red), LLC-PK11; assay type: cell-based; conditions: pig, 48 h incubation, read-out: Cytotoxic activity IC50, LLC-PK11
Experimental: as §1

[12] = D6, read-out: Chloroquine-Sensitive (D6)-Clone IC50
[13] = W2, read-out: Chloroquine-Resistant (W2)-Clone IC50

Question: Which “antibacterial activity against Bacillus subtilis” value [1] does the source give for `CC1=CC(=O)C2(OC2C(=O)CC(C)C)C(=O)N1` (stereo not shown) [Compound 2, flavipucine] here?
Answer: moderate antibacterial activity

Question: What about the “cytotoxic activity against human leukemia HL-60 cells” value [2] of the same compound?
Answer: strong cytotoxic activity

Question: For `C\C=C(/C=C(C)/C=C/C=C/C=C(\C)C(=O)[C@H]1C(=O)N[C@]2(O)CCO[C@H]12)C(=O)OC` [lucilactaene], which antiplasmodial activity [3] is on record?
Answer: potent antiplasmodial activity

Question: Which results are given for `C\C=C(/C=C(C)/C=C/CC/C=C(\C)C(=O)C1=CC(C)(OC)NC1=O)C(=O)OC` (stereo not shown) [Compound 3, dothilactaene A]?
Answer: Chloroquine-Sensitive (D6)-Clone IC50 ([4]; P. falciparum D6, concentration causing 50% growth inhibition, highest concentration tested […]): inactive; IC50 [4, 12]: > 4.76 µg/mL; Chloroquine-Resistant (W2)-Clone IC50 ([5]; P. falciparum W2, concentration causing 50% growth inhibition, highest concentration tested […]): inactive; IC50 [5, 13]: > 4.76 µg/mL; IC50 at 48 h [6]: > 4.76 µg/mL

Question: With `C[C@@H]1CC[C@H]2[C@@H](C)C(=O)O[C@@H]3O[C@@]4(C)CC[C@@H]1[C@]32OO4` [Artemisinin] as the compound, how does the IC50 at 48 h [6] read?
Answer: > 4.76 µg/mL

Question: Which IC50 at 48 h [7] does the source give for `COc1cccc2c1C(=O)c1c(O)c3c(c(O)c1C2=O)C[C@@](O)(C(=O)CO)C[C@@H]3O[C@H]1C[C@H](N)[C@H](O)[C@H](C)O1` [Doxorubicin] here?
Answer: 1290 nM

Question: What about the IC50 at 48 h [8] of the same compound?
Answer: 2120 nM

Question: What about the IC50 at 48 h [9] of the same compound?
Answer: 1830 nM

Question: And the IC50 at 48 h [10]?
Answer: 1470 nM

Question: What about the IC50 at 48 h [11] of the same compound?
Answer: 1280 nM

Question: Which results are given for `CCN(CC)CCCC(C)Nc1ccnc2cc(Cl)ccc12` (stereo not shown) [Chloroquine]?
Answer: IC50 [4, 12]: 0.016 µg/mL; IC50 ([4]; D6, read-out: Chloroquine-Sensitive (D6)-Clone IC50 (µM, in parentheses)): 0.03 µM; IC50 [5, 13]: 0.16 µg/mL; IC50 ([5]; W2, read-out: Chloroquine-Resistant (W2)-Clone IC50 (µM, in parentheses)): 0.31 µM; IC50 at 48 h [6]: > 4.76 µg/mL
